Publication PMC6050274, “Buparlisib is a brain penetrable pan-PI3K inhibitor” (Scientific Reports, 2018)

Legend:
LLC-PK1 cells = assay: Conventional transport assay (CTA), diffusion over a cellular monolayer; format: in vitro ADME, porcine; details: zosuquidar present, both directions, 100 nM
Text: We first sought to investigate whether buparlisib (Fig. 1A) is transported by P-gp or BCRP in vitro using concentration equilibrium transport assays (CETAs). CETAs are sensitive assays to determine translocation over a cellular monolayer and are frequently used to determine substrate affinity for ABC transporters by comparing cell lines that overexpress ABC transporters with their parental counterparts[24]–[26]. Since P-gp and BCRP are apically located transporters, a prerequisite for detecting substrate affinity for these transporters in a CETA is the capacity of a molecule to penetrate cell membranes. We therefore first confirmed that buparlisib could efficiently diffuse over a cellular monolayer using a conventional transwell set-up. […]
(§1) Conventional bidirectional transport assays (CTAs) and concentration equilibrium transport assays (CETAs) were performed as described previously. […] Transwell leakiness was determined as Carboxyl-[^14C]-inulin translocation exceeding 1.5% per hour and these wells were excluded from the analysis.
To prepare buparlisib transport assay samples for LC-MS/MS analysis, 10 μL medium samples were mixed with 30 μL of acetonitrile:formic acid (100:1 v/v). After centrifugation, the supernatant was 5-fold diluted in water and the buparlisib concentration was measured using an LC-MS/MS system as described below.

human BCRP (ABCG2) = target: T1, human BCRP (ABCG2) (Homo sapiens, UniProt Q9UNQ0); assay: Concentration equilibrium transport assay (CETA), MDCK-BCRP; format: in vitro ADME; details: 100 nM
T1 construct: expressed in transfected cells; host or cells: MDCK (MDCK-BCRP)
T1 sequence (Q9UNQ0 1-655): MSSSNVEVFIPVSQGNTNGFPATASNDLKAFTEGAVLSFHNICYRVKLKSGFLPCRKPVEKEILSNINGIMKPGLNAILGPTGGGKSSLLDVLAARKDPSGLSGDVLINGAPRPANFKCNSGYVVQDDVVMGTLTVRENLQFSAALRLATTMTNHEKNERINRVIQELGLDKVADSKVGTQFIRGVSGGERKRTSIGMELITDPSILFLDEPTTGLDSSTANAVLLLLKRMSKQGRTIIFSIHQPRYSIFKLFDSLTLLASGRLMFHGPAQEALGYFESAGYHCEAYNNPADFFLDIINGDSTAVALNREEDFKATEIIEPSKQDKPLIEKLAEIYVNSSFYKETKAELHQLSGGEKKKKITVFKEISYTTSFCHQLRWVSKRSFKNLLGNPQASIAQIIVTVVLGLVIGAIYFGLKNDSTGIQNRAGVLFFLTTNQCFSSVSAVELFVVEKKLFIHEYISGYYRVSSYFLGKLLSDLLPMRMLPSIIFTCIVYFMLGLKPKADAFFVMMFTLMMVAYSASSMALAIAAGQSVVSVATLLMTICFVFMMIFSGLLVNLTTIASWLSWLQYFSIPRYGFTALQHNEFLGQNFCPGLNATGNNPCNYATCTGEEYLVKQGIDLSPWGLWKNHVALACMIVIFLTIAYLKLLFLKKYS
Text: (§2) Figure 1 Analysis of buparlisib substrate affinity for ABC transporters using in vitro transport assays. (A) The chemical structure of buparlisib. (B) A conventional transport assay (CTA) using LLC-PK1 cells in presence of zosuquidar to block endogenous (porcine) P-gp activity. […] (C) Concentration equilibrium transport assays (CETAs) using MDCK or LLC cells that overexpress murine BCRP, (Bcrp1), human BCRP, murine P-gp (Mdr1a) or human P-gp (MDR1). […] The P-gp inhibitor zosuquidar was used in all MDCK cell lines to inhibit endogenous P-gp activity and in LLC cell lines to validate possible P-gp-mediated translocations. […]
as §1, with “analysis. […]” for “analysis.”
(§3) As described in detail before, CETA results were analysed with the General linear model repeated measures procedure of SPSS (v22; SPSS Inc, Chicago, IL)[25]. […] The standard error of the oral bioavailability was calculated using the formula below: SEF=F(SEAUCp.o./AUCp.o.)^2+(SEAUCi.v./AUCi.v.)^2 Buparlisib concentrations in WT and transporter knockout mice in vivo were compared using one-way analysis of variance followed by post hoc Bonferroni tests. […]

[1] = target: T2, murine P-gp (Abcb1a/Mdr1a) (Mus musculus, UniProt P21447); assay: Concentration equilibrium transport assay (CETA), LLC-Mdr1a; format: in vitro ADME; details: 100 nM
T2 construct: expressed in transfected cells; host or cells: LLC-PK1 (LLC-Mdr1a)
T2 sequence (P21447 whole entry): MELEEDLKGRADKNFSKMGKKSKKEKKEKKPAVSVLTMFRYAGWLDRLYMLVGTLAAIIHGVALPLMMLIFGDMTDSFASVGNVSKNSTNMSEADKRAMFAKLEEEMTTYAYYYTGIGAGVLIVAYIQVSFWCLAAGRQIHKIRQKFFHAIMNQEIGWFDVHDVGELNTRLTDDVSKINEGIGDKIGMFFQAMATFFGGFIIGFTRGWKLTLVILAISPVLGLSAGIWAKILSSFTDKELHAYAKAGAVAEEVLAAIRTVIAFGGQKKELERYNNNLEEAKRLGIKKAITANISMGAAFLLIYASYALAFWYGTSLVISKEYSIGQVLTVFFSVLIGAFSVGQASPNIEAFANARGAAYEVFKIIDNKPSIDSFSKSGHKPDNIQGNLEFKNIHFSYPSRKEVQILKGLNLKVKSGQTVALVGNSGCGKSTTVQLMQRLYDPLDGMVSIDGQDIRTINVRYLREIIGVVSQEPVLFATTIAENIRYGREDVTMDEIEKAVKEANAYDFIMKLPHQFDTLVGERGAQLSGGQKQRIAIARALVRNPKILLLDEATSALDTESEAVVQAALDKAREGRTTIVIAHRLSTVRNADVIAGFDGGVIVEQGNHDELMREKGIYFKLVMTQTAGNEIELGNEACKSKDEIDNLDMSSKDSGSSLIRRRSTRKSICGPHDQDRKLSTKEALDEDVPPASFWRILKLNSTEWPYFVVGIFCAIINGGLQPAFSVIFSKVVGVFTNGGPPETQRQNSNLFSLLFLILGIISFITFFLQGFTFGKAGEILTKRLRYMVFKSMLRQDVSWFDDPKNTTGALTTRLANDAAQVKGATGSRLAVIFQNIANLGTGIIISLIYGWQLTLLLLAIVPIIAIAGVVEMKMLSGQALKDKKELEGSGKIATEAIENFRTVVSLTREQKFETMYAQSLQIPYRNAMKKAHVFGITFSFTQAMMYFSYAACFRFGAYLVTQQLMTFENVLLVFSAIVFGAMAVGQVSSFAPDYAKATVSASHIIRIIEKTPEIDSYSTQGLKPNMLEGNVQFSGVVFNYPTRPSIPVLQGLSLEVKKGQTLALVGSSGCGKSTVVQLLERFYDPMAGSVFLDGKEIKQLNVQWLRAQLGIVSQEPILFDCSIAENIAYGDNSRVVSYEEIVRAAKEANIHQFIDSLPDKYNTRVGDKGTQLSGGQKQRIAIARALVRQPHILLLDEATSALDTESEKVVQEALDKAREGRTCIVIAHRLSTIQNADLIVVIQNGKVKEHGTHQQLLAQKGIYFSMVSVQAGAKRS
Text: as §2
as §1, with “analysis. […]” for “analysis.”
as §3

human P-gp (ABCB1/MDR1) = target: T3, human P-gp (ABCB1/MDR1) (Homo sapiens, UniProt P08183); assay: Concentration equilibrium transport assay (CETA), LLC-MDR1; format: in vitro ADME; details: 100 nM
T3 construct: expressed in transfected cells; host or cells: LLC-PK1 (LLC-MDR1)
T3 sequence (P08183 whole entry): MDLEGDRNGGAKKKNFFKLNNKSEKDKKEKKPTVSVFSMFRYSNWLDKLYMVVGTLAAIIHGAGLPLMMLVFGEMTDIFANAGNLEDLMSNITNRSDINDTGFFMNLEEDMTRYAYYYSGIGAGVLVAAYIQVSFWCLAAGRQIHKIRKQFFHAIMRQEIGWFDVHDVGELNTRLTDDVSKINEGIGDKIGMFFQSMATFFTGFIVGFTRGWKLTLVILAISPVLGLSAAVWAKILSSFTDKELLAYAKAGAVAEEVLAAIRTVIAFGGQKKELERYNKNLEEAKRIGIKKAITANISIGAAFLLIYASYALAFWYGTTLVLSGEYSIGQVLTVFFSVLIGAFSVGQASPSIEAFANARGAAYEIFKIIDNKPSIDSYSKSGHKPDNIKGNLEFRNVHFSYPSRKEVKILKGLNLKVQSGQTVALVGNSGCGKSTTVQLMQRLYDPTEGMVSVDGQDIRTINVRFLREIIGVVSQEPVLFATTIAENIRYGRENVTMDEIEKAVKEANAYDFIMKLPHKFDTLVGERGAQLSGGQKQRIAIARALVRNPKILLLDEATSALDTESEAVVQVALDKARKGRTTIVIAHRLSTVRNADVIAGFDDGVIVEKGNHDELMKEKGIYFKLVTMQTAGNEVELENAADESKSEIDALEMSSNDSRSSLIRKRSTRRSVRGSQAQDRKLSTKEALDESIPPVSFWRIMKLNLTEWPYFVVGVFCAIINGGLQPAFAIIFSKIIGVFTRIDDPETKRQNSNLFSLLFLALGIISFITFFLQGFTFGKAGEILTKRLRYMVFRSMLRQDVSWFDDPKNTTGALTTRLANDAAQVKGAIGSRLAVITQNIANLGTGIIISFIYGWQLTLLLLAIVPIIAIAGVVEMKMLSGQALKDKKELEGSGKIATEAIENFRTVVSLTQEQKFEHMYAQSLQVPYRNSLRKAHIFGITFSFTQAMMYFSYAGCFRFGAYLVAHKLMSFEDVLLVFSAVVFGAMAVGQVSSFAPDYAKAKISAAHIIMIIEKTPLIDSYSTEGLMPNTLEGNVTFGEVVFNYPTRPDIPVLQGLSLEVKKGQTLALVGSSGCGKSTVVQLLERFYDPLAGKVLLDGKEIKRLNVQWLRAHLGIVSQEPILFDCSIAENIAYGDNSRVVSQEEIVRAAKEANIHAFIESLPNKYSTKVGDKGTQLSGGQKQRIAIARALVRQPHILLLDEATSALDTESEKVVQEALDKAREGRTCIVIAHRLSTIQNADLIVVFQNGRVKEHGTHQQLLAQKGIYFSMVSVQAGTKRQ
Text: as §2
as §1, with “analysis. […]” for “analysis.”
as §3

[2] = humans; cited from earlier work

Nc1cc(C(F)(F)F)c(-c2cc(N3CCOCC3)nc(N3CCOCC3)n2)cn1 [buparlisib]
time to plateau to almost complete equilibrium between apical and basal compartments (LLC-PK1 cells): ≤ 4 h
substrate of human BCRP (human BCRP (ABCG2)): not a substrate
substrate of murine P-gp [1]: not a substrate
substrate of human P-gp (human P-gp (ABCB1/MDR1)): not a substrate
maximum tolerated dose [2]: 100 mg per day
